Patent US20120035260A1, “TELLURIUM-CONTAINING COMPOUNDS FOR AFFECTING FEMALE'S REPRODUCTIVE SYSTEM FOLLOWING CHEMOTHERAPY AND/OR RADIOTHERAPY” (BIOMAS LTD., priority 2009, published 2012)

Key:
ovarian follicles [1] = format: in vivo, female Balb/c mice; conditions: single 75, 100 or 150 mg/kg Cy or 4 weekly 75 mg/kg Cy, AS101 as co-treatment with Cy; for ratio of primary follicles relative to primordial follicles: FIG. 3A; for ratio of secondary follicles relative to primordial follicles: FIG. 3B
Protocol: (§1) 6 week old female Balb/c mice were divided randomly into 4 groups. The mice in the treatment groups received cyclophosphamide (Cy) with or without co-treatment with AS101. Control mice received injections of phosphate buffer saline (PBS) or AS101. Cy treatment consisted of a single intraperitoneal injection of 75, 100 or 150 mg/kg Cy, or 4 weekly injections of 75 mg/kg Cy. AS101 was injected at a dose of 10 mg/kg every other day starting 1 week prior to Cy administration until 1 week after the last administration of Cy. PBS was injected on the same days as described for AS101.
(§2) Both ovaries were removed 7 days after the last Cy administration treatment, and fixed in 4% paraformaldehyde in PBS. The ovaries were embedded in paraplast and serially sectioned to 5 μm slices, and stained with haematoxylin/eosin. Care was taken to ensure that both ovaries were removed from each mouse in their entirety for histological processing. Primordial, primary and secondary follicles were counted by two blinded examiners who were unaware of the treatments, using a light microscope (AxioImager Z1, Zeiss, Oberkochen, Germany) in bright-field mode using a X20 objective. To avoid counting the same follicle twice, only one section in each set of five consecutive sections was used. The relative distribution of different stages of early follicle growth was then calculated.
(§3) Follicles were classified as primordial follicles (PMF) if they contained an oocyte surrounded by a partial or complete layer of squamous pregranulosa cells without a theca layer. In this species, PMF are located almost exclusively in the ovarian cortex, and they are very small (about 15 μm diameter). The follicular count of each follicle type was then multiplied by 5 to reach a representative of total follicles [Meirow et al., Hum Reprod 1999; 14:1903-1907]. The data from follicular count is presented as the percentage of the count obtained from the PBS-treated control group.
The populations of primary follicles, secondary follicles and primordial follicles (PMF) were characterized following single injections of 75, 100 or 150 mg/kg Cy or 4 weekly injections of 75 mg/kg Cy.

[2] = cited from earlier work
[3] = cancer patients, AS101 in combination with chemotherapy; cited from earlier work
tumor = conditions: cited from earlier work
ovarian follicles [4] = format: in vivo
Protocol: Follicular apoptosis was visualized using the TUNEL staining of ovaries from additional group of mice sacrificed at 12, 24 and 48 hours after a single injection of 150 mg/kg Cy.

[5] = system: ovarian primordial follicles (PMF); test: Primordial follicle (PMF) counts in ovaries of cyclophosphamide-treated mice; format: in vivo, female Balb/c mice; conditions: AS101 10 mg/kg every other day where co-treated; for ovarian PMF count, % of that of the control (PBS) group: ovaries removed 7 days after Cy
Protocol: as §1, §2, §3
Student's T-test was performed to assess the differences between groups. Statistical significance was determined at p<0.05.

[6] = system: anti-Mullerian hormone (AMH); test: Plasma anti-Mullerian hormone (AMH) levels by ELISA; format: in vivo, female Balb/c mice; conditions: 4 weekly injections of 75 mg/kg Cy; control (PBS) group 10.7±2.1 ng/ml
Protocol: as §1
Anti-Mullerian hormone (AMH) levels in the plasma were measured by ELISA techniques according to the manufacturer instruction (DSL, Webster, Tex.).
Mice were administered PBS, AS101, Cy or Cy+AS101 for 4 weeks, as described hereinabove.

Structure (SMILES)	ratio of primary follicles relative to primordial follicles (ovarian follicles [1])	ratio of secondary follicles relative to primordial follicles (ovarian follicles [1])	survival of mice ([2]; mice treated with various cytotoxic drugs or radiation)	protection from hematopoietic damage ([2]; mice, lethal and sublethal doses of chemotherapeutic drugs, including cyclophosphamide)	severity of neutropenia, thrombocytopenia and alopecia that accompany chemotherapy [3]	effect in combination with Cy (tumor; treatment of tumor-bearing mice)	anti-tumoral effect (tumor; variety of tumor models in mice and humans)	TUNEL staining of ovary, follicle appearance (ovarian follicles [4]; co-therapy with a chemotherapeutic agent and AS101, FIG. 5C)	apoptotic (TUNEL) stain in primordial follicles (ovarian follicles [4]; ovary treated with AS101, FIG. 5B)	PMF count, % of that of the control group ([5]; 75 mg/kg Cy once a week for 4 weeks, ovaries removed 7 days after last Cy)	ovarian PMF count, % of that of the control (PBS) group ([5]; single i.p. injection of 75 mg/kg Cy)	ovarian PMF count, % of that of the control (PBS) group ([5]; single i.p. injection of 100 mg/kg Cy)	ovarian PMF count, % of that of the control (PBS) group ([5]; single i.p. injection of 150 mg/kg Cy)	plasma AMH levels [6] [ng/mL]	apoptotic (TUNEL) staining in granulosa cells of growing follicles (ovarian follicles [4]; 24 hours after a single treatment with 150 mg/kg Cy, FIG. 5A)
Cl[TeH]1(Cl)(Cl)OCCO1 [AS101, ammonium trichloro(dioxyethylene-O,O′)tellurate]	prevented the Cy-induced increase in these ratios	prevented the Cy-induced increase in these ratios	increase the survival of mice	protect mice from hematopoietic damage	significant reduction in the severity	synergistic effect with Cy	exhibits an anti-tumoral effect	follicles destroyed by chemotherapy as well as healthy primordial follicles of ovary are observed	no apoptotic stain was detected	–	–	–	–	–	–
O=P1(N(CCCl)CCCl)NCCCO1 (centres unmarked) [Cy, cyclophosphamide]	increased the ratio	increased the ratio	–	–	–	–	–	–	–	12.2%±9.5%	52.1%±15.1%	48%±12.6%	38%±22.2%	7.2 ± 1.9	extensive apoptotic staining
